Experiments:
Assay in all cases: differential drug sensitivity score (dDSS) relative to sarcoma reference cohort mean DSS (DSS units (0-100 scale difference)); higher = more selective sensitivity than reference sarcomas
Settings in all cases: exposure time: 72 h; concentration range: 10-10000 nM
[1] = system: ES-ZH016 direct (Ewing sarcoma cells right after isolation)
Experimental: (§1)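 Drug response profiling of patient-derived Ewing sarcoma and CIC::DUX4 sarcoma tumoroid models (or cells tested directly after isolation from the tumor, 'direct'). The DSS is the normalised AUC (0-100); dDSS is the sample DSS minus the mean DSS of a 34-sarcoma reference cohort profiled in the same lab.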

[2] = system: ES-ZH002 (patient-derived Ewing sarcoma tumoroid)
Experimental: as §1

[3] = system: CDS-ZH003 (patient-derived CIC-DUX4 sarcoma tumoroid)
Experimental: as §1

[4] = system: CDS-ZH002 (patient-derived CIC-DUX4 sarcoma tumoroid)
Experimental: as §1

[5] = system: ES-ZH008 (patient-derived Ewing sarcoma tumoroid)
Experimental: as §1

[6] = system: CDS-ZH001 (patient-derived CIC-DUX4 sarcoma tumoroid)
Experimental: as §1

[7] = system: ES-ZH016 (patient-derived Ewing sarcoma tumoroid)
Experimental: as §1

[8] = system: CDS-ZH001-2 (patient-derived CIC-DUX4 sarcoma tumoroid)
Experimental: as §1

[9] = system: ES-ZH007 (patient-derived Ewing sarcoma tumoroid)
Experimental: as §1

[10] = system: CDS-ZH002 direct (CIC-DUX4 sarcoma cells right after isolation)
Experimental: as §1

[11] = system: ES-ZH009 (patient-derived Ewing sarcoma tumoroid)
Experimental: as §1

[12] = system: ES-ZH001 (patient-derived Ewing sarcoma tumoroid)
Experimental: as §1

[13] = system: ES-ZH004 (patient-derived Ewing sarcoma tumoroid)
Experimental: as §1

Structure (SMILES) | differential drug sensitivity score [1] | differential drug sensitivity score [2] | differential drug sensitivity score [3] | differential drug sensitivity score [4] | differential drug sensitivity score [5] | differential drug sensitivity score [6] | differential drug sensitivity score [7] | differential drug sensitivity score [8] | differential drug sensitivity score [9] | differential drug sensitivity score [10] | differential drug sensitivity score [11] | differential drug sensitivity score [12] | differential drug sensitivity score [13]
C[C@@H]1COCCN1c1cc(-c2ccnn2C)c2ccnc(-c3ccn[nH]3)c2n1 [Elimusertib] | 12.4 | 10.8 | 7.8 | 0.9 | 11.6 | 7.3 | 6.4 | 11.3 | 10.1 | -5.1 | 10.9 | 7 | 9.6
NC(=O)/C(=C/n1cnc(-c2cc(C(F)(F)F)cc(C(F)(F)F)c2)n1)c1cncnc1 [Eltanexor] | 22 | 5 | -13.9 | -5.7 | 16.8 | 0.5 | -5.7 | 8 | 0.4 | -5.9 | -14.4 | -3.8 | 14
CC(C)(O)CNc1nc(Nc2ccnc(C(F)(F)F)c2)nc(-c2cccc(C(F)(F)F)n2)n1 [Enasidenib] | -1.3 | -1.3 | -1.3 | -1.3 | -1.3 | -1.3 | -1.3 | -1.3 | -1 | -1.3 | -1.3 | -1.3 | -0.7
C[C@@H]1CN(C(=O)c2ccc(NC(=O)c3cc(O[C@H](C)c4c(Cl)ccc(F)c4Cl)c(N)nn3)cc2)C[C@H](C)N1 [Ensartinib] | 3.7 | 15.2 | -1.2 | -0.8 | 13.9 | 5 | 3.9 | 5.2 | 4.2 | -1.9 | -2.1 | 4.7 | 4.3
Nc1ccccc1NC(=O)c1ccc(CNC(=O)OCc2cccnc2)cc1 [Entinostat] | 5.6 | 4.9 | -2.1 | -3 | 5.6 | -4.9 | -0.2 | 0.5 | 5.5 | 1.3 | 2.1 | 0.2 | 7.1
c1cn2cc(-c3ccc4cn[nH]c4c3)nc(Nc3ccc(N4CCOCC4)cc3)c2n1 [Entospletinib] | 13.1 | -2.1 | 0 | 13.4 | -2.1 | -2.1 | -2.1 | 10.6 | -2.1 | -1.8 | -2.1 | -2.1 | -2.1
CN1CCN(c2ccc(C(=O)Nc3n[nH]c4ccc(Cc5cc(F)cc(F)c5)cc34)c(NC3CCOCC3)c2)CC1 [Entrectinib] | 10.8 | 8.1 | -4.3 | 0.2 | 6 | 2 | 2.3 | 7.7 | -1.1 | -2.3 | 2 | 3 | 12.9
NS(=O)(=O)NCCNc1nonc1/C(=N/O)Nc1ccc(F)c(Br)c1 [Epacadostat] | -0.5 | -0.2 | 0.6 | -0.7 | 5.6 | -0.7 | 0.1 | -0.7 | -0.7 | -0.7 | 0 | -0.7 | 0
COc1cc(OC)cc(N(CCNC(C)C)c2ccc3ncc(-c4cnn(C)c4)nc3c2)c1 [Erdafitinib] | 12.1 | 7.8 | -8 | -4 | 10.1 | -1.4 | -3.7 | -0.4 | -2.5 | -4.5 | -1.7 | -2.3 | 5
C#Cc1cccc(Nc2ncnc3cc(OCCOC)c(OCCOC)cc23)c1 [Erlotinib] | -1.1 | -1.1 | -1.1 | -1.1 | -1.1 | -1.1 | -1.1 | -1.1 | -1.1 | -1.1 | -1.1 | -1.1 | -1.1
COc1cc([C@@H]2c3cc4c(cc3[C@@H](O[C@@H]3O[C@@H]5CO[C@@H](C)O[C@H]5[C@H](O)[C@H]3O)[C@H]3COC(=O)[C@H]23)OCO4)cc(OC)c1O [Etoposide] | 7.2 | 25.5 | -6.8 | -4.3 | 13.6 | -1.6 | 8.7 | 3.8 | 6.1 | -7.3 | 8.6 | 10 | 11.7
CO[C@H]1C[C@@H]2CC[C@@H](C)[C@@](O)(O2)C(=O)C(=O)N2CCCC[C@H]2C(=O)O[C@H]([C@H](C)C[C@@H]2CC[C@@H](OCCO)[C@H](OC)C2)CC(=O)[C@H](C)/C=C(\C)[C@@H](O)[C@@H](OC)C(=O)[C@H](C)C[C@H](C)/C=C/C=C/C=C/1C [Everolimus] | -7 | 13.6 | -3.3 | -7.4 | 4.8 | -5.3 | -3.5 | -3.9 | 9.6 | -6.4 | 9.3 | 5.3 | 12
Cc1cnc(Nc2ccc(OCCN3CCCC3)cc2)nc1Nc1cccc(S(=O)(=O)NC(C)(C)C)c1 [Fedratinib] | -0.1 | 5.5 | -2.2 | -1.7 | 1.5 | -0.1 | -1.3 | 0.2 | -1.8 | -3.3 | 3.9 | 1.8 | -3.2
Nc1nc(F)nc2c1ncn2[C@@H]1O[C@H](CO)[C@@H](O)[C@@H]1O [Fludarabine] | 11.5 | 8.7 | -2.8 | -0.8 | -1.1 | -3.2 | 1.4 | 3.9 | 3.9 | 2.5 | -3.2 | 4.6 | 5.3
